According to patent US7915050B2, “Regulatory genes for plant differentiation and growth, and use of the same” (National University Corporation Nagoya University, priority 2005, dated 2011):

Molecular target: T1, AtGID1a (Arabidopsis thaliana, UniProt Q9MAA7)
T1 construct: made in house; host or cells: E. coli
T1 sequence (Q9MAA7 1-345): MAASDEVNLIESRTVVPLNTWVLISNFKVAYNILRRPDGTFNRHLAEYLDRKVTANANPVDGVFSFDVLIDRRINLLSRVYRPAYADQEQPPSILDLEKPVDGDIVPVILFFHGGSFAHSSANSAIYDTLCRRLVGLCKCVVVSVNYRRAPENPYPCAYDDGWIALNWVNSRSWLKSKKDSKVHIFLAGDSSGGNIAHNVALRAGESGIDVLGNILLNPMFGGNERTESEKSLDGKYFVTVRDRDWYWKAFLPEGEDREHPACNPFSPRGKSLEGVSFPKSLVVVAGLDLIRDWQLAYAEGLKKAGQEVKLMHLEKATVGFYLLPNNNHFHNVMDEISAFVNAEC
Assay: Scatchard analysis of GA binding of AtGID1a
Details: equilibrium conditions
Protocol: Panels A) to C) depict the results of Scatchard plot analyses for the GA binding of AtGID1. Results for AtGID1a (A), AtGID1b (B), and AtGID1c (C) are shown. The Kd values for 16,17-dihydro-GA4 was determined by adding various concentrations of GA to the assay mixture. Standard deviation (SD) was determined from these three independent measurements. The insets show time-course characteristics for the GA binding of AtGID1 and replacement (arrow) using an excess amount of non-labeled GA4 (0.125 mM). Panels D) to F) depict the GA binding activities of AtGID1 under different pH conditions. Results for AtGID1a (D), AtGID1b (E), and AtGID1c (F) are shown. The non-specific binding activity (UB) was determined by adding 0.125 mM GA4 to the assay solution, and this was subtracted from the total binding activity (B) to determine the specific binding activity (B-UB).
Specifically, the coding region of the AtGID1 gene was amplified by PCR using specific primers designed based on the full-length cDNA sequence of the AtGID1 gene and having appropriate restriction sites at each end. […]
The kinetics, ligand selectivity, and pH dependence of GA binding for the three AtGID1s identified as described above were examined using the tritiated GA4 derivative 16,17-dihydro-GA4. […] Furthermore, the kinetics of GA binding of each AtGID1 was analyzed under equilibrium conditions of GA at various concentrations.

CC1C[C@]23C[C@H]1CCC2[C@]12CC[C@H](O)[C@](C)(C(=O)O1)[C@H]2[C@@H]3C(=O)O (stereo partly shown) [H2-GA4, 16,17-dihydro-GA4] gave a Kd of 2 µM.
